Results as given in PubChem BioAssay (NCI).
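Results reflect a 48-hour exposure of cells in 96-well plates to compound at five concentrations. TGI denotes the concentration required for complete inhibition of growth.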

Key:
Assay in all cases: NCI tumour cell line growth inhibition, 48 h
786-0 renal = system: 786-0 renal
A498 renal = system: A498 renal
A549 NSCLC = system: A549 NSCLC
ACHN renal = system: ACHN renal
BT-549 breast = system: BT-549 breast
CAKI-1 renal = system: CAKI-1 renal
CCRF-CEM leukemia = system: CCRF-CEM leukemia
COLO 205 colon = system: COLO 205 colon
DU-145 prostate = system: DU-145 prostate
EKVX NSCLC = system: EKVX NSCLC
HCC-2998 colon = system: HCC-2998 colon
HCT-116 colon = system: HCT-116 colon
HCT-15 colon = system: HCT-15 colon
HOP-62 NSCLC = system: HOP-62 NSCLC
HOP-92 NSCLC = system: HOP-92 NSCLC
HS 578T breast = system: HS 578T breast
HT29 colon = system: HT29 colon
IGROV1 ovarian = system: IGROV1 ovarian
K-562 leukemia = system: K-562 leukemia
KM12 colon = system: KM12 colon
LOX IMVI melanoma = system: LOX IMVI melanoma
M14 melanoma = system: M14 melanoma
MALME-3M melanoma = system: MALME-3M melanoma
MCF7 breast = system: MCF7 breast
MDA-MB-231 breast = system: MDA-MB-231 breast
MDA-MB-435 = system: MDA-MB-435
MDA-N = system: MDA-N
MOLT-4 leukemia = system: MOLT-4 leukemia
NCI-H226 lung = system: NCI-H226 lung
NCI-H23 lung = system: NCI-H23 lung
NCI-H460 lung = system: NCI-H460 lung
NCI-H522 lung = system: NCI-H522 lung
NCI/ADR-RES ovarian = system: NCI/ADR-RES ovarian
OVCAR-3 ovarian = system: OVCAR-3 ovarian
OVCAR-4 ovarian = system: OVCAR-4 ovarian
OVCAR-5 ovarian = system: OVCAR-5 ovarian
OVCAR-8 ovarian = system: OVCAR-8 ovarian
PC-3 prostate = system: PC-3 prostate
RXF 393 renal = system: RXF 393 renal
SF-268 CNS = system: SF-268 CNS
SF-295 CNS = system: SF-295 CNS
SK-MEL-2 melanoma = system: SK-MEL-2 melanoma
SK-MEL-28 melanoma = system: SK-MEL-28 melanoma
SK-MEL-5 melanoma = system: SK-MEL-5 melanoma
SK-OV-3 ovarian = system: SK-OV-3 ovarian
SN12C renal = system: SN12C renal
SNB-19 CNS = system: SNB-19 CNS
SNB-75 CNS = system: SNB-75 CNS
SW-620 colon = system: SW-620 colon
T-47D breast = system: T-47D breast
TK-10 renal = system: TK-10 renal
U251 CNS = system: U251 CNS
UACC-257 melanoma = system: UACC-257 melanoma
UACC-62 melanoma = system: UACC-62 melanoma
UO-31 renal = system: UO-31 renal

Measured: TGI

COC(=O)c1sc(=S)sc1SCc1ccc(CSc2sc(=S)sc2C(=O)OC)cc1
> 100 µM: all assays above
